Source: patent US20100298141A1, “SUBSTITUTED PYRIDINE N-OXIDE HERBICIDES” (E. I. DU PONT DE NEMOURS AND COMPANY, priority 2007, published 2010)

Columns and labels:
[1] = test system: wild oat; test: Test C pre-/postemergence test; type: in vivo, Avena fatua
Method in brief: (§1)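 Seeds were planted and treated preemergence with test chemical in a non-phytotoxic solvent mixture containing surfactant. Postemergence applications of the same formulation went onto plants 2 to 18 cm tall (1- to 4-leaf stage). A dash marks no test result.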

[2] = test system: duck salad; test: Test C flooded paddy test; type: in vivo, Heteranthera limosa; conditions: Flood
Method in brief: (§2)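 Under a constant 3 cm flood, test compounds went directly into the paddy water. Following 13 to 15 days of greenhouse growth, treated species and controls were compared by eye.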

[3] = test system: catchweed bedstraw; test: Test C pre-/postemergence test; type: in vivo, Galium aparine; conditions: for Plant response rating, Galium: 31 g ai/ha, scale 0 to 100 (0 no effect, 100 complete control)
Method in brief: as §1

[4] = test system: woolly cupgrass; test: Test C pre-/postemergence test; type: in vivo, Eriochloa villosa
Method in brief: as §1

[5] = test system: blackgrass; test: Test C pre-/postemergence test; type: in vivo, Alopecurus myosuroides
Method in brief: as §1

[6] = test system: johnsongrass; test: Test C pre-/postemergence test; type: in vivo, Sorghum halepense
Method in brief: as §1

[7] = test system: velvetleaf; test: Test A pre-/postemergence greenhouse test; type: in vivo, Abutilon theophrasti; conditions: for Plant response rating, Velvetleaf: 0 to 100 scale where 0 is no effect and 100 is complete control; for Velvetleaf plant response rating: 0 to 100 scale
Method in brief: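 Each test compound, dissolved in a non-phytotoxic solvent mixture with surfactant, was sprayed directly onto seeded soil (loam/sand blend) and, at the same moment, onto seedlings carrying one to two leaves. Around ten greenhouse days later, plants were rated visually for injury relative to untreated controls.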

[8] = test system: green foxtail; test: Test C pre-/postemergence test; type: in vivo, Setaria viridis
Method in brief: as §1

[9] = test system: morningglory; test: Test C pre-/postemergence test; type: in vivo, Ipomoea coccinea
Method in brief: as §1

[10] = test system: corn; test: Test C pre-/postemergence test; type: in vivo, Zea mays
Method in brief: as §1

[11] = test system: cocklebur; test: Test C pre-/postemergence test; type: in vivo, Xanthium strumarium
Method in brief: as §1

[12] = test system: giant foxtail; test: Test C pre-/postemergence test; type: in vivo, Setaria faberii
Method in brief: as §1

[13] = test system: velvetleaf; test: Test C pre-/postemergence test; type: in vivo, Abutilon theophrasti
Method in brief: as §1

[14] = test system: downy brome; test: Test C pre-/postemergence test; type: in vivo, Bromus tectorum
Method in brief: as §1

[15] = test system: Italian ryegrass; test: Test C pre-/postemergence test; type: in vivo, Lolium multiflorum
Method in brief: as §1

[16] = test system: barnyardgrass; test: Test C flooded paddy test; type: in vivo, Echinochloa crus-galli; conditions: Flood
Method in brief: as §2

[17] = test system: soybean; test: Test C pre-/postemergence test; type: in vivo, Glycine max
Method in brief: as §1

[18] = 62 g ai/ha, Preemergence, scale 0 to 100
[19] = 125 g ai/ha, preemergence, scale 0 (no effect) to 100 (complete control)
[20] = Postemergence, 62 g ai/ha, scale 0 to 100, 0 no effect, 100 complete control
[21] = Postemergence, 125 g ai/ha, scale 0 to 100, 0 no effect, 100 complete control
[22] = Postemergence, 250 g ai/ha, scale 0 to 100, 0 no effect, 100 complete control
[23] = Preemergence, 31 g ai/ha, scale 0 to 100 (0 no effect, 100 complete control)
[24] = preemergence, 250 g ai/ha, scale 0 (no effect) to 100 (complete control)
[25] = 62 g ai/ha, scale 0 to 100 (0 no effect, 100 complete control)
[26] = 250 g ai/ha, scale 0 to 100, 0 no effect, 100 complete control, 13 to 15 days
[27] = Postemergence, 500 g ai/ha, 0 is no effect, 100 is complete control
[28] = Preemergence, 125 g ai/ha, 0 no effect, 100 complete control
[29] = 31 g ai/ha, scale 0 to 100 (0 no effect, 100 complete control)
[30] = 62 g ai/ha, scale 0 to 100, 0 no effect, 100 complete control, 13 to 15 days
[31] = 125 g ai/ha, scale 0 to 100, 0 no effect, 100 complete control, 13 to 15 days

Cn1nc(C(F)(F)F)c(C[S+]([O-])c2ccc(F)c[n+]2[O-])c1OC(F)F (stereo not drawn) [Compound 58]
90: Plant response rating, Ryegrass, Italian [15, 22]
0: Plant response rating (0 to 100), Oat, Wild ([1]; Postemergence, 31 g ai/ha) | Plant response rating, Oat, Wild [1, 20] | Plant response rating, Oat, Wild [1, 21] | Plant response rating, Galium ([3]; Preemergence) | Plant response rating (0 to 100), Cupgrass, Woolly ([4]; Postemergence, 31 g ai/ha) | Plant response rating, Cupgrass, Woolly [4, 20] | Plant response rating (0 to 100), Blackgrass ([5]; Postemergence, 31 g ai/ha) | Plant response rating, Blackgrass [5, 20] | Plant response rating (0 to 100), Johnsongrass ([6]; Postemergence, 31 g ai/ha) | Plant response rating, Johnsongrass [6, 20] | Plant response rating (0 to 100), Foxtail, Green ([8]; Postemergence, 31 g ai/ha) | Plant response rating (0 to 100), Morningglory ([9]; Postemergence, 31 g ai/ha) | Plant response rating, Morningglory [9, 20] | Plant response rating (0 to 100), Corn ([10]; Postemergence, 31 g ai/ha) | Plant response rating, Corn [10, 20] | Plant response rating, Corn [10, 21] | Plant response rating, Corn [10, 22] | Cocklebur plant response rating [11, 18] | Cocklebur plant response rating [11, 19] | Plant response rating (0 to 100), Cocklebur ([11]; Postemergence, 31 g ai/ha) | Plant response rating, Cocklebur [11, 20] | Plant response rating, Cocklebur [11, 21] | Plant response rating, Cocklebur [11, 22] | Plant response rating, Cocklebur [11, 23] | Plant response rating (0 to 100), Foxtail, Giant ([12]; Postemergence, 31 g ai/ha) | Plant response rating (0 to 100), Velvetleaf ([13]; Postemergence, 31 g ai/ha) | Plant response rating (0 to 100), Velvetleaf ([13]; Postemergence, 62 g ai/ha) | Plant response rating (0 to 100), Bromegrass, Downy ([14]; Postemergence, 31 g ai/ha) | Plant response rating, Bromegrass, Downy [14, 20] | Plant response rating, Bromegrass, Downy [14, 21] | Plant response rating, Bromegrass, Downy [14, 23] | Plant response rating (0 to 100), Ryegrass, Italian ([15]; Postemergence, 31 g ai/ha) | Plant response rating, Soybean [17, 23]
65: Plant response rating, Barnyardgrass [16, 25] | Plant response rating, Soybean [17, 22]
40: Cocklebur plant response rating [11, 24] | Plant response rating, Foxtail, Giant [12, 21] | Plant response rating, Foxtail, Giant [12, 23] | Plant response rating (0 to 100), Ryegrass, Italian ([15]; Postemergence, 62 g ai/ha) | Plant response rating, Ryegrass, Italian [15, 23] | Plant response rating (0 to 100), Soybean ([17]; Postemergence, 62 g ai/ha)
60: Cupgrass, Woolly plant response rating [4, 18] | Plant response rating, Johnsongrass [6, 22] | Plant response rating, Velvetleaf ([7]; Postemergence, 125 g ai/ha) | Velvetleaf plant response rating [7, 28] | Plant response rating, Foxtail, Giant [12, 22] | Bromegrass, Downy plant response rating [14, 18] | Plant response rating, Bromegrass, Downy [14, 22] | Plant response rating, Soybean [17, 21]
10: Plant response rating, Cupgrass, Woolly [4, 21] | Plant response rating, Cupgrass, Woolly [4, 23] | Plant response rating, Johnsongrass [6, 21] | Plant response rating, Foxtail, Giant [12, 20]
5: Plant response rating, Oat, Wild [1, 22] | Plant response rating, Morningglory [9, 21] | Plant response rating, Morningglory [9, 22] | Plant response rating, Velvetleaf [13, 21] | Plant response rating, Velvetleaf [13, 22] | Plant response rating, Velvetleaf [13, 23]
70: Plant response rating, Ducksalad [2, 25] | Galium plant response rating [3, 18] | Plant response rating, Foxtail, Green [8, 23] | Ryegrass, Italian plant response rating [15, 18] | Plant response rating, Ryegrass, Italian [15, 21]
75: Plant response rating, Corn [10, 23] | Velvetleaf plant response rating [13, 18]
85: Plant response rating, Johnsongrass [6, 23] | Plant response rating, Barnyardgrass [16, 26]
20: Plant response rating, Oat, Wild [1, 23] | Plant response rating (0 to 100), Soybean ([17]; Postemergence, 31 g ai/ha)
30: Plant response rating, Blackgrass [5, 21]
95: Cupgrass, Woolly plant response rating [4, 19] | Johnsongrass plant response rating [6, 18]
98: Blackgrass plant response rating [5, 18] | Plant response rating, Blackgrass [5, 23] | Foxtail, Green plant response rating [8, 18] | Morningglory plant response rating [9, 18] | Morningglory plant response rating [9, 19] | Ryegrass, Italian plant response rating [15, 19]
45: Oat, Wild plant response rating [1, 18]
100: Galium plant response rating [3, 19] | Galium plant response rating [3, 24] | Cupgrass, Woolly plant response rating [4, 24] | Blackgrass plant response rating [5, 19] | Blackgrass plant response rating [5, 24] | Johnsongrass plant response rating [6, 19] | Johnsongrass plant response rating [6, 24] | Plant response rating, Velvetleaf ([7]; Preemergence, 500 g ai/ha) | Foxtail, Green plant response rating [8, 19] | Foxtail, Green plant response rating [8, 24] | Morningglory plant response rating [9, 24] | Corn plant response rating [10, 18] | Corn plant response rating [10, 19] | Corn plant response rating [10, 24] | Foxtail, Giant plant response rating [12, 18] | Foxtail, Giant plant response rating [12, 19] | Foxtail, Giant plant response rating [12, 24] | Velvetleaf plant response rating [13, 19] | Velvetleaf plant response rating [13, 24] | Bromegrass, Downy plant response rating [14, 19] | Bromegrass, Downy plant response rating [14, 24] | Ryegrass, Italian plant response rating [15, 24] | Soybean plant response rating [17, 18] | Soybean plant response rating [17, 19] | Soybean plant response rating [17, 24]
80: Oat, Wild plant response rating [1, 19] | Oat, Wild plant response rating [1, 24] | Plant response rating, Ducksalad [2, 26] | Plant response rating, Cupgrass, Woolly [4, 22] | Plant response rating, Blackgrass [5, 22] | Velvetleaf plant response rating [7, 27] | Plant response rating, Foxtail, Green [8, 22] | Plant response rating, Morningglory [9, 23]
25: Plant response rating, Foxtail, Green [8, 20]
50: Plant response rating, Foxtail, Green [8, 21]

Cn1nc(C(F)(F)F)c(C(Cl)S(=O)(=O)c2cccc[n+]2[O-])c1OCC(F)(F)F (racemic) [Compound 36]
80: Oat, Wild plant response rating [1, 24] | Johnsongrass plant response rating [6, 18] | Corn plant response rating [10, 24]
40: Oat, Wild plant response rating [1, 19] | Velvetleaf plant response rating [7, 27] | Velvetleaf plant response rating [7, 28] | Corn plant response rating [10, 18] | Velvetleaf plant response rating [13, 19]
30: Oat, Wild plant response rating [1, 18] | Plant response rating, Foxtail, Giant [12, 23] | Bromegrass, Downy plant response rating [14, 19] | Plant response rating, Ryegrass, Italian [15, 23]
98: Ryegrass, Italian plant response rating [15, 18]
50: Foxtail, Giant plant response rating [12, 18] | Bromegrass, Downy plant response rating [14, 24]
5: Soybean plant response rating [17, 18]
85: Plant response rating, Ducksalad [2, 29] | Plant response rating, Ducksalad [2, 30]
20: Soybean plant response rating [17, 24]
25: Plant response rating, Oat, Wild [1, 23] | Plant response rating, Barnyardgrass [16, 31]
70: Plant response rating, Velvetleaf ([7]; Preemergence, 500 g ai/ha) | Foxtail, Green plant response rating [8, 18] | Velvetleaf plant response rating [13, 24]
0: Galium plant response rating [3, 18] | Plant response rating, Galium ([3]; Preemergence) | Velvetleaf plant response rating ([7]; Postemergence, 125 g ai/ha, 0 is no effect, 100 is complete control) | Plant response rating, Morningglory [9, 23] | Plant response rating, Corn [10, 23] | Cocklebur plant response rating [11, 18] | Cocklebur plant response rating [11, 19] | Plant response rating, Cocklebur [11, 23] | Cocklebur plant response rating [11, 24] | Velvetleaf plant response rating [13, 18] | Plant response rating, Velvetleaf [13, 23] | Bromegrass, Downy plant response rating [14, 18] | Plant response rating, Bromegrass, Downy [14, 23] | Plant response rating, Barnyardgrass [16, 29] | Plant response rating, Soybean [17, 23]
55: Cupgrass, Woolly plant response rating [4, 18] | Plant response rating, Cupgrass, Woolly [4, 23]
95: Blackgrass plant response rating [5, 18] | Blackgrass plant response rating [5, 19]
90: Plant response rating, Ducksalad [2, 31] | Plant response rating, Ducksalad [2, 26] | Johnsongrass plant response rating [6, 19] | Johnsongrass plant response rating [6, 24] | Plant response rating, Barnyardgrass [16, 26]
15: Soybean plant response rating [17, 19]
60: Plant response rating, Blackgrass [5, 23] | Plant response rating, Johnsongrass [6, 23] | Morningglory plant response rating [9, 19] | Corn plant response rating [10, 19]
100: Galium plant response rating [3, 19] | Galium plant response rating [3, 24] | Cupgrass, Woolly plant response rating [4, 19] | Cupgrass, Woolly plant response rating [4, 24] | Blackgrass plant response rating [5, 24] | Foxtail, Green plant response rating [8, 24] | Foxtail, Giant plant response rating [12, 19] | Foxtail, Giant plant response rating [12, 24] | Ryegrass, Italian plant response rating [15, 19] | Ryegrass, Italian plant response rating [15, 24]
75: Foxtail, Green plant response rating [8, 19] | Morningglory plant response rating [9, 24]
10: Morningglory plant response rating [9, 18] | Plant response rating, Barnyardgrass [16, 30]
